In paper PMC2932887 (Journal of medicinal chemistry, 2010):
Like-named read-outs stand apart in the source and are kept apart here.

Columns and labels:
recombinant rat NAAA [1] = target: T1, recombinant rat NAAA (Rattus norvegicus, UniProt Q5KTC7); assay: NAAA assay: inhibition of heptadecenoylethanolamide hydrolysis; format: biochemical; settings: for NAAA inhibitory activity (in words): recombinant rat NAAA
T1 sequence (Q5KTC7 131-362 limits assumed): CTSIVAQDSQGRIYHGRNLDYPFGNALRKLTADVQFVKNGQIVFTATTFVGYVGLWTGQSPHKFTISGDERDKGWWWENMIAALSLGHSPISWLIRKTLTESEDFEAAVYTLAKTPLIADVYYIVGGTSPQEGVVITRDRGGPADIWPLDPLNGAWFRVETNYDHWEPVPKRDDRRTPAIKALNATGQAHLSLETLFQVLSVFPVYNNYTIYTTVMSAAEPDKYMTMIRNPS
T1 sequence (Q5KTC7 34-130 partner limits assumed): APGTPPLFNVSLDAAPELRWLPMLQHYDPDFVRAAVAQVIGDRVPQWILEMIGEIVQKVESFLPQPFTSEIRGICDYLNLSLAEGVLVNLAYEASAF

recombinant rat NAAA [2] = target: T1, recombinant rat NAAA; settings: intracellular NAAA activity; cited from earlier work
[3] = tested on: diacylglycerol lipase type-α; settings: cited from earlier work
FAAH = settings: cited from earlier work
monoacylglycerol lipase = settings: cited from earlier work
[4] = target: T2, Recombinant NAAA expressed in HEK-293 Cells (Rattus norvegicus, UniProt Q5KTC7); assay: Michaelis-Menten analysis of NAAA in presence of inhibitor; format: biochemical
T2 sequence (Q5KTC7 131-362 limits assumed): T1 sequence (Q5KTC7 131-362 limits assumed)
T2 sequence (Q5KTC7 34-130 partner limits assumed): T1 sequence (Q5KTC7 34-130 partner limits assumed)

SMILES: O=C1OCC1CCCCc1ccccc1 (racemic) [compound 23, rac-3-(4-Phenylbutyl)oxetan-2-one]
- NAAA inhibitory activity (in words) (recombinant rat NAAA [1]): low potency

SMILES: O=C(CCc1ccccc1)N[C@H]1COC1=O [7a, (S)-N-(2-Oxo-3-oxetanyl)-3-phenylpropionamide]
- mechanism of NAAA inhibition (recombinant rat NAAA [2]): non-competitive
- inhibition of diacylglycerol lipase type-α [3]: no inhibition
- inhibition of FAAH (FAAH): no inhibition
- inhibition of monoacylglycerol lipase (monoacylglycerol lipase): no inhibition

SMILES: O=C(N[C@H]1COC1=O)c1ccc(-c2ccccc2)cc1 [7h, (S)-N-(2-Oxo-3-oxetanyl)biphenyl-4-carboxamide]
- mechanism of NAAA inhibition (recombinant rat NAAA [1]; preincubation time-course, Michaelis-Menten analysis, overnight dialysis): rapid, noncompetitive and reversible
- Vmax ([4]; 100 nM inhibitor): 10.8 ± 2.5 nmol/min/mg
- Vmax ([4]; 200 nM inhibitor): 6.2 ± 0.2 nmol/min/mg

SMILES: O=C(CCc1ccccc1)N[C@H]1CCOC1=O [11a, (S)-N-(2-Oxotetrahydrofuran-3-yl)-3-phenylpropionamide]
- NAAA inhibitory activity (in words) (recombinant rat NAAA [1]): entirely devoid of inhibitory activity

SMILES: O=C(N[C@H]1CCOC1=O)c1ccc2ccccc2c1 [11j, (S)-N-(2-Oxotetrahydrofuran-3-yl)-2-naphthamide]
- NAAA inhibitory activity (in words) (recombinant rat NAAA [1]): inactivity

SMILES: C[C@H]1OC(=O)[C@H]1NC(=O)CCc1ccccc1 [20a, (2R,3S)-N-(2-Methyl-4-oxo-3-oxetanyl)-3-phenylpropionamide]
- NAAA inhibitory activity (in words) (recombinant rat NAAA [1]): complete loss of activity

SMILES: O=C(CCc1ccccc1)N[C@@H](CO)C(=O)O [compound 10, (S)-3-Hydroxy-2-(3-Phenylpropionylamino)propionic Acid]
- NAAA inhibitory activity (in words) (recombinant rat NAAA [1]): entirely devoid of inhibitory activity

SMILES: O=C(CCc1ccccc1)NC1CCC1 [compound 12, N-Cyclobutyl-3-phenylpropionamide]
- NAAA inhibitory activity (in words) (recombinant rat NAAA [1]): entirely devoid of inhibitory activity

SMILES: O=C(CCc1ccccc1)NC1CCC1=O (centres unmarked) [compound 15, N-(2-Oxocyclobutyl)-3-phenylpropionamide]
- NAAA inhibitory activity (in words) (recombinant rat NAAA [1]): entirely devoid of inhibitory activity
